Target: human Cereblon WT GST-tagged protein (Homo sapiens (Human), UniProt Q96SW2)
Experiment: CRBN-binding affinity, CEREBLON BINDING kit (HTRF)
Settings: HTRF inhibitory activity, binding to CRBN
Excerpt: Determination of CRBN-Binding Affinity of Compounds
The CEREBLON BINDING kits (specification: 10,000 tests; product number: Catalog #64BDCRBNPEH; CISBIO company) was used to determine the CRBN binding ability of the compounds to be tested through a HTRF method (homogeneous time-resolved fluorescence). The specific methods are as follows: • 1. According to the instructions of the CEREBLON BINDING kits, the compounds to be tested of the present invention and lenalidomide were serially diluted using diluent #9 (1×) solution to obtain a final concentration of 2 μM for both the tested compounds and lenalidomide solution. • 2.2.5 μL of the above 2 μM of the tested compounds and lenalidomide solution, as well as the same volume of diluent #9 (1×) solution (solvent control group, Std0) were taken and added to each well of a 96-well plate, respectively. Then, 2.5 μL of (human Cereblon WT GST-tagged protein) solution was added to each well. Finally, 5 μL of the uniformly mixed thalidomide-Red reagent and GST Eu antibody working solution were added to each of the above wells. The final concentration of the tested compounds and lenalidomide in each well is 0.5 μM. • 3. The blank control wells were sequentially added with 2.5 μL of diluent #9 (1×) solution, 2.5 μL of PROTAC binding buffer, and 5 μL of uniformly mixed thalidomide-Red reagent and GST Eu antibody working solution. • 4. After sealing and incubating the solutions in the above wells at room temperature for 3 hours, the absorbance values at emission wavelengths of 620 nm and 665 nm were detected by the HTRF method using a Spark microplate reader (V3.1 SP1).
The corresponding CRBN binding inhibition rate was calculated using the following method: […]
Note: OD 665 nmcompound is the absorbance value of each well of the compounds to be tested of the present disclosure at an emission wavelength of 665 nm.
OD 620 nmcompound is the absorbance value of each well of the compounds to be tested of the present disclosure at an emission wavelength of 620 nm.
OD 665 nmcontrol is the absorbance value of the blank control well at an emission wavelength of 665 nm.
OD 620 nmcontrol is the absorbance value of the blank control well at an emission wavelength of 620 nm.
OD 665 nmstd0 is the absorbance value of the solvent control well at an emission wavelength of 665 nm.
OD 620 nmstd0 is the absorbance value of the solvent control well at an emission wavelength of 620 nm.

Sequence of human Cereblon WT GST-tagged protein (Q96SW2 whole entry): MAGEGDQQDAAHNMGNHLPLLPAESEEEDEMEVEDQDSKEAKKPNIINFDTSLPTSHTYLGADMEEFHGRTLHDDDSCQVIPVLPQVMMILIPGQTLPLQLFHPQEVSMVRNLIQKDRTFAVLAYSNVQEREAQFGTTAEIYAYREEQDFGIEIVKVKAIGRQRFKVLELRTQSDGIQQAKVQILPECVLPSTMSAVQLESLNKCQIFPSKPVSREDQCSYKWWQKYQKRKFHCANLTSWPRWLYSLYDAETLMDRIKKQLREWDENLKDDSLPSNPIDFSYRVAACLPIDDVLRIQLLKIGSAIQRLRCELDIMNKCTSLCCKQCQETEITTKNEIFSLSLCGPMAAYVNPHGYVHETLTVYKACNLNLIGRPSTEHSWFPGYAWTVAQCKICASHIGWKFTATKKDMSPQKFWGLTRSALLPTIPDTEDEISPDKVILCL

Row | SMILES | IC50
1 | Cc1nc2cccc(NCCCNC3C4CC5CC(C4)CC3C5)c2c(=O)n1C1CCC(=O)NC1=O (stereo not drawn) [GT-02326, 3-(5-((3-(((1r,3r,5r,7r)-adamantan-2-yl)amino)propyl)amino)-2-methyl-4-oxoquinazolin-3(4H)-yl)piperidine-2,6-dione] | 700 nM
2 | Cc1nc2cccc(NCCCCCCCN3CCC(N4CCOCC4)CC3)c2c(=O)n1C1CCC(=O)NC1=O (stereo not drawn) [GT-02622, 3-(2-methyl-5-((7-(4-morpholinopiperidin-1-yl)heptyl)amino)-4-oxoquinazolin-3(4H)-yl)piperidine-2,6-dione] | 2480 nM
3 | Cc1nc2cccc(C#CCCCCCCN3CCN(C)CC3)c2c(=O)n1C1CCC(=O)NC1=O (stereo not drawn) [GT-02645, 3-(2-methyl-5-(8-(4-methylpiperazin-1-yl)oct-1-yn-1-yl)-4-oxoquinazolin-3(4H)-yl)piperidine-2,6-dione] | 2800 nM
4 | Cc1nc2cccc(C#CCN3CCN(Cc4ccc(C56CC7CC(CC(C7)C5)C6)cc4)CC3)c2c(=O)n1C1CCC(=O)NC1=O (stereo not drawn) [GT-03233, 3-(5-(3-(4-(4-((3r,5r,7r)-adamantan-1-yl)benzyl)piperazin-1-yl)prop-1-yn-1-yl)-2-methyl-4-oxoquinazolin-3(4H)-yl)piperidine-2,6-dione] | 2240 nM
5 | Cc1nc2cccc(CN3CCN(CCC45CC6CC(CC(C6)C4)C5)CC3)c2c(=O)n1C1CCC(=O)NC1=O (stereo not drawn) [GT-03261, 3-(5-((4-(2-((3r,5r,7r)-adamantan-1-yl)ethyl)piperazin-1-yl)methyl)-2-methyl-4-oxoquinazolin-3(4H)-yl)piperidine-2,6-dione] | 1000 nM
6 | Cc1nc2cccc(CN3CCNCC3)c2c(=O)n1C1CCC(=O)NC1=O (stereo not drawn) [GT-03228, 3-(2-methyl-4-oxo-5-(piperazin-1-ylmethyl)quinazolin-3(4H)-yl)piperidine-2,6-dione] | 1840 nM
7 | Cc1nc2cccc(NCCOCCNC34CC5CC(CC(C5)C3)C4)c2c(=O)n1C1CCC(=O)NC1=O (stereo not drawn) [GT-02234, 3-(5-((2-(2-(((1s,3s)-adamantan-1-yl)amino)ethoxy)ethyl)amino)-2-methyl-4-oxoquinazolin-3(4H)-yl)piperidine-2,6-dione] | 3340 nM
8 | Cc1nc2cccc(CN3CCN(CC45CC6CC(CC(C6)C4)C5)CC3)c2c(=O)n1C1CCC(=O)NC1=O (stereo not drawn) [GT-03227, 3-(5-((4-(((3r,5r,7r)-adamantan-1-yl)methyl)piperazin-1-yl)methyl)-2-methyl-4-oxoquinazolin-3(4H)-yl)piperidine-2,6-dione] | 2240 nM
9 | Cc1nc2cccc(CCCCCCCCN3CCC(N4CCN(C)CC4)CC3)c2c(=O)n1C1CCC(=O)NC1=O (stereo not drawn) [GT-02799, 3-(2-methyl-5-(8-(4-(4-methylpiperazin-1-yl)piperidin-1-yl)octyl)-4-oxoquinazolin-3(4H)-yl)piperidine-2,6-dione] | 2470 nM
10 | Cc1nc2cccc(NCCCCCCCN3CC4CC(C3)O4)c2c(=O)n1C1CCC(=O)NC1=O (stereo not drawn) [GT-02621, 3-(5-((7-(6-oxa-3-azabicyclo[3.1.1]heptan-3-yl)heptyl)amino)-2-methyl-4-oxoquinazolin-3(4H)-yl)piperidine-2,6-dione] | 1040 nM
11 | Cc1nc2cccc(N3C4CC3CN(CCC35CC6CC(CC(C6)C3)C5)C4)c2c(=O)n1C1CCC(=O)NC1=O (stereo not drawn) [GT-04231, 3-(5-(3-(2-((3r,5r,7r)-adamantan-1-yl)ethyl)-3,6-diazabicyclo[3.1.1]heptan-6-yl)-2-methyl-4-oxoquinazolin-3(4H)-yl)piperidine-2,6-dione] | 3240 nM
12 | Cc1nc2cccc(CCCCCCCCN3CC4CC(C3)O4)c2c(=O)n1C1CCC(=O)NC1=O (stereo not drawn) [GT-02800, 3-(5-(8-(6-oxa-3-azabicyclo[3.1.1]heptan-3-yl)octyl)-2-methyl-4-oxoquinazolin-3(4H)-yl)piperidine-2,6-dione] | 3400 nM
13 | Cc1nc2cccc(CN3CCN(Cc4ccc(C56CC7CC(CC(C7)C5)C6)cc4)CC3)c2c(=O)n1C1CCC(=O)NC1=O (stereo not drawn) [GT-03230, 3-(5-((4-(4-((3r,5r,7r)-adamantan-1-yl)benzyl)piperazin-1-yl)methyl)-2-methyl-4-oxoquinazolin-3(4H)-yl)piperidine-2,6-dione] | 2750 nM
14 | Cc1nc2cccc(SCCN3CCN(CC45CC6CC(CC(C6)C4)C5)CC3)c2c(=O)n1C1CCC(=O)NC1=O (stereo not drawn) [GT-03259, 3-(5-((2-(4-(((3r,5r,7r)-adamantan-1-yl)methyl)piperazin-1-yl)ethyl)thio)-2-methyl-4-oxoquinazolin-3(4H)-yl)piperidine-2,6-dione] | 2150 nM

More lines, in order of falling IC50, values ahead:

Row | IC50 | SMILES
15 | 3580 nM | Cc1nc2cccc(CN3CCN(C(=O)C45CC6CC(CC(C6)C4)C5)CC3)c2c(=O)n1C1CCC(=O)NC1=O (stereo not drawn) [GT-03317, 3-(5-((4-((1s,3s)-adamantane-1-carbonyl)piperazin-1-yl)methyl)-2-methyl-4-oxoquinazolin-3(4H)-yl)piperidine-2,6-dione]
16 | 2820 nM | Cc1nc2cccc(NC34CC5CC(CC(C5)C3)C4)c2c(=O)n1C1CCC(=O)NC1=O (stereo not drawn) [GT-02601, 3-(5-(((1s,3s)-adamantan-1-yl)amino)-2-methyl-4-oxoquinazolin-3(4H)-yl)piperidine-2,6-dione]
17 | 2520 nM | Cc1nc2cccc(NCCCCCCCN3CCN(C4COC4)CC3)c2c(=O)n1C1CCC(=O)NC1=O (stereo not drawn) [GT-02623, 3-(2-methyl-5-((7-(4-(oxetan-3-yl)piperazin-1-yl)heptyl)amino)-4-oxoquinazolin-3(4H)-yl)piperidine-2,6-dione]
18 | 1980 nM | Cc1nc2cccc(SCCN3CCN(Cc4ccc(C56CC7CC(CC(C7)C5)C6)cc4)CC3)c2c(=O)n1C1CCC(=O)NC1=O (stereo not drawn) [GT-03315, 3-(5-((2-(4-(4-((1s,3s)-adamantan-1-yl)benzyl)piperazin-1-yl)ethyl)thio)-2-methyl-4-oxoquinazolin-3(4H)-yl)piperidine-2,6-dione]
19 | 1800 nM | Cc1nc2cccc(NCCCCCCCN3CCCN(C)CC3)c2c(=O)n1C1CCC(=O)NC1=O (stereo not drawn) [GT-02502, 3-(2-methyl-5-((7-(4-methyl-1,4-diazepan-1-yl)heptyl)amino)-4-oxoquinazolin-3(4H)-yl)piperidine-2,6-dione]
20 | 1000 nM | Cc1nc2cccc(C#CCN3CCN(CCC45CC6CC(CC(C6)C4)C5)CC3)c2c(=O)n1C1CCC(=O)NC1=O (stereo not drawn) [GT-03262, 3-(5-(3-(4-(2-((1s,3s)-adamantan-1-yl)ethyl)piperazin-1-yl)prop-1-yn-1-yl)-2-methyl-4-oxoquinazolin-3(4H)-yl)piperidine-2,6-dione]
21 | 990 nM | Cc1nc2cccc(NCCCCNC3C4CC5CC(C4)CC3C5)c2c(=O)n1C1CCC(=O)NC1=O (stereo not drawn) [GT-02392, 3-(5-((4-(((1r,3r,5r,7r)-adamantan-2-yl)amino)butyl)amino)-2-methyl-4-oxoquinazolin-3(4H)-yl)piperidine-2,6-dione]
22 | 780 nM | Cc1nc2cccc(NCCOCCNC34CC5CC(CC3C5)C4)c2c(=O)n1C1CCC(=O)NC1=O (stereo not drawn) [GT-02389, 3-(5-((2-(2-(((3as,6as)-hexahydro-2,5-methanopentalen-3a(1H)-yl)amino)ethoxy)ethyl)amino)-2-methyl-4-oxoquinazolin-3(4H)-yl)piperidine-2,6-dione]
23 | 660 nM | Cc1nc2cccc(NCCOCCOCCNC34CC5CC(CC3C5)C4)c2c(=O)n1C1CCC(=O)NC1=O (stereo not drawn) [GT-02497, 3-(5-((2-(2-(2-(((3as,6as)-hexahydro-2,5-methanopentalen-3a(1H)-yl)amino)ethoxy)ethoxy)ethyl)amino)-2-methyl-4-oxoquinazolin-3(4H)-yl)piperidine-2,6-dione]
24 | 50 nM | Cc1nc2cccc(CCCCCNC34CC5CC(CC(C5)C3)C4)c2c(=O)n1C1CCC(=O)NC1=O (stereo not drawn) [GT-02759, 3-(5-(5-(((3s,5s,7s)-adamantan-1-yl)amino)pentyl)-2-methyl-4-oxoquinazolin-3(4H)-yl)piperidine-2,6-dione]

Source: patent US20240425475A1, “COMPOUND BASED ON QUINAZOLINE-SUBSTITUTED GLUTARIMIDE SKELETON AND USE THEREOF” (GLUETACS THERAPEUTICS (SHANGHAI) CO., LTD., priority 2022, published 2024)
